Each block holds one compound with its values, some of them ahead of it.
Tests used:
OATP1B3 [1] = molecular target: T1, OATP1B3 (Homo sapiens, UniProt Q9NPD5); assay: fluorimetric uptake of fluorescein-methotrexate; assay type: cell-based; conditions: racemic compound
T1 sequence (Q9NPD5 1-702): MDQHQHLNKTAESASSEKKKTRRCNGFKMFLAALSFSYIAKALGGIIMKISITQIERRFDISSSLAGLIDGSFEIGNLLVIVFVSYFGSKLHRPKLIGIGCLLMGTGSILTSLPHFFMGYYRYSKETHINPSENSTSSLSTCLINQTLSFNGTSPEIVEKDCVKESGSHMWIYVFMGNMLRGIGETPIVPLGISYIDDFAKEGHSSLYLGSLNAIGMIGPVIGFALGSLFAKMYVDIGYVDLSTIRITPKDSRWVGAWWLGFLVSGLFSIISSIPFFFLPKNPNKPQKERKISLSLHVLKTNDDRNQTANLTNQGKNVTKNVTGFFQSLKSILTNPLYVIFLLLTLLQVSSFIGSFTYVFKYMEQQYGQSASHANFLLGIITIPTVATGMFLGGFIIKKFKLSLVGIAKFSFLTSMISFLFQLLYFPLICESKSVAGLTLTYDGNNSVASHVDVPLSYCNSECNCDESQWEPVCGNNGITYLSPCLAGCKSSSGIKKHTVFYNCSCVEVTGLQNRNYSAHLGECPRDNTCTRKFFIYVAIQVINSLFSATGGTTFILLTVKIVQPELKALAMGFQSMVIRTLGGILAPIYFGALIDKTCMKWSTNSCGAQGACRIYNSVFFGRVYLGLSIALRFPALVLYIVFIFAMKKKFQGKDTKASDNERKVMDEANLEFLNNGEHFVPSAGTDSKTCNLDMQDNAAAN

OATP1B1 [2] = molecular target: T2, OATP1B1 (Homo sapiens, UniProt Q9Y6L6); assay: fluorimetric uptake of fluorescein-methotrexate; assay type: cell-based; conditions: racemic compound
T2 sequence (Q9Y6L6 1-691): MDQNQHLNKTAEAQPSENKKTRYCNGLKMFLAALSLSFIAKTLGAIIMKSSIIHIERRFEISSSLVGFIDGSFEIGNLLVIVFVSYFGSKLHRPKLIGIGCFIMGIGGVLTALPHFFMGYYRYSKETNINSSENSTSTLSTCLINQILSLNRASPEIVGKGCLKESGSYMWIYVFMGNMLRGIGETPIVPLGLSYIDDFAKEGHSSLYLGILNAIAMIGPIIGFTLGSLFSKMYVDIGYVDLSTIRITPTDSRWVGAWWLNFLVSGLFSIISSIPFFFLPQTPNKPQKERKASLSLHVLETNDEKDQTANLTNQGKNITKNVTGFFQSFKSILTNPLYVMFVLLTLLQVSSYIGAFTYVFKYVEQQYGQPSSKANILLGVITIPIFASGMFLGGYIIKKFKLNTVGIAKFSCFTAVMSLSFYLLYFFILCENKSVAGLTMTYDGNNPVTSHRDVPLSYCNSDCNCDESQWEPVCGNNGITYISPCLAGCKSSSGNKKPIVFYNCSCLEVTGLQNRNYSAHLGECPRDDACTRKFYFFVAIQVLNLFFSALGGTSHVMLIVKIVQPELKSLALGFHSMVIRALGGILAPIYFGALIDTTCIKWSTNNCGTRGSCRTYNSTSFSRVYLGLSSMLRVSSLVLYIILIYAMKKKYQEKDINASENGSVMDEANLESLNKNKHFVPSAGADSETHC

BSEP = BSEP (Homo sapiens, UniProt O95342); assay: uptake of 3H-taurocholic acid in membrane vesicles, scintillation counting; assay type: biochemical; conditions: read-out: % of control activity at 10 μM
MRP2 = MRP2 (Homo sapiens, UniProt Q92887); assay: fluorimetric uptake of […]; assay type: cell-based
hPXR = molecular target: T3, hPXR (Homo sapiens, UniProt O75469); assay: luciferase reporter gene assay; assay type: cell-based
T3 sequence (O75469 1-434): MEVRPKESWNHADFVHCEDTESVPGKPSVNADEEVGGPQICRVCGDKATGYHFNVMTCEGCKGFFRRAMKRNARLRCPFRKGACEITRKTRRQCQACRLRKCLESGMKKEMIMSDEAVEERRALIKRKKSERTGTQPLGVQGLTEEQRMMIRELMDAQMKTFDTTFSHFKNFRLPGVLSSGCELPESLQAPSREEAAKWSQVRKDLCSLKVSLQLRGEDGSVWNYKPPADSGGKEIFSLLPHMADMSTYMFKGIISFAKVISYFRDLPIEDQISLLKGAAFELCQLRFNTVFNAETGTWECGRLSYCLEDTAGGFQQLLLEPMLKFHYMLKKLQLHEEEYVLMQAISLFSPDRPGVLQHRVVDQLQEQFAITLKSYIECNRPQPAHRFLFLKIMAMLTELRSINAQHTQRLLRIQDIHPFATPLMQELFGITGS

OATP1B3 [3] = molecular target: T1, OATP1B3; assay: fluorimetric uptake of fluorescein-methotrexate; assay type: cell-based
OATP1B1 [4] = molecular target: T2, OATP1B1; assay: fluorimetric uptake of fluorescein-methotrexate; assay type: cell-based

Chain of BSEP (O95342 whole entry): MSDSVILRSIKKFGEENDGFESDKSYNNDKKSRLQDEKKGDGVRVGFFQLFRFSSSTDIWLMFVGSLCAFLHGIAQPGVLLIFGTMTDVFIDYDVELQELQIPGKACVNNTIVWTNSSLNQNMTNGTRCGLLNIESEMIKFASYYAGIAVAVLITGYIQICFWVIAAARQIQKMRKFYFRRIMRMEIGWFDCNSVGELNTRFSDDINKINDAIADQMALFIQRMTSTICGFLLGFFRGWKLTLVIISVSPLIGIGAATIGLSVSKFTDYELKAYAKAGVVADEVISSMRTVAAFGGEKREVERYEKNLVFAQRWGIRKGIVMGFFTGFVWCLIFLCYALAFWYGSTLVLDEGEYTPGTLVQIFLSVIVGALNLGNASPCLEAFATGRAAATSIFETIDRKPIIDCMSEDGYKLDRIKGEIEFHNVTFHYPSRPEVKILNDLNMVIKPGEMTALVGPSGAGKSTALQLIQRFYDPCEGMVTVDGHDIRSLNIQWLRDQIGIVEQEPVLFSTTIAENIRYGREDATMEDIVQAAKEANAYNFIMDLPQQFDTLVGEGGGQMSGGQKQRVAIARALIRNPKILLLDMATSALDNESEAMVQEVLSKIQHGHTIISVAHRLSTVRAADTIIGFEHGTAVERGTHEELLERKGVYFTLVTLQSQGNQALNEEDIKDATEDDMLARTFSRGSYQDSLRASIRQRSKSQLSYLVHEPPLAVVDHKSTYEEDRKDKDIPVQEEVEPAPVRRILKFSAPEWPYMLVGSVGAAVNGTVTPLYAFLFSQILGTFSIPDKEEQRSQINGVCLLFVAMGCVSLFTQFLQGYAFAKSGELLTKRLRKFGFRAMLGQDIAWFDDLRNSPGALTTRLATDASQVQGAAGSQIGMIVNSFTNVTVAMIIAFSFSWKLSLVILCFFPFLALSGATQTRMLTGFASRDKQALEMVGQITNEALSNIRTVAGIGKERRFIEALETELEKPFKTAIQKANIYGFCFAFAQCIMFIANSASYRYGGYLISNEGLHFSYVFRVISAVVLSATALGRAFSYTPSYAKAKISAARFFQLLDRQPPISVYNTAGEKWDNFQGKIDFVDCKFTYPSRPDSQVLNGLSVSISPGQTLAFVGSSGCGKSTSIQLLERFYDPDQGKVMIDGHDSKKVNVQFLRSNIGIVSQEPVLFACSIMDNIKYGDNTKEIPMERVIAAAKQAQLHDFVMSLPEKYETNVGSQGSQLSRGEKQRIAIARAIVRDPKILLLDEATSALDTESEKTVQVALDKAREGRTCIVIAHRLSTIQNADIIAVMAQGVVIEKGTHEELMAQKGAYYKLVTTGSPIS
Chain of MRP2 (Q92887 whole entry): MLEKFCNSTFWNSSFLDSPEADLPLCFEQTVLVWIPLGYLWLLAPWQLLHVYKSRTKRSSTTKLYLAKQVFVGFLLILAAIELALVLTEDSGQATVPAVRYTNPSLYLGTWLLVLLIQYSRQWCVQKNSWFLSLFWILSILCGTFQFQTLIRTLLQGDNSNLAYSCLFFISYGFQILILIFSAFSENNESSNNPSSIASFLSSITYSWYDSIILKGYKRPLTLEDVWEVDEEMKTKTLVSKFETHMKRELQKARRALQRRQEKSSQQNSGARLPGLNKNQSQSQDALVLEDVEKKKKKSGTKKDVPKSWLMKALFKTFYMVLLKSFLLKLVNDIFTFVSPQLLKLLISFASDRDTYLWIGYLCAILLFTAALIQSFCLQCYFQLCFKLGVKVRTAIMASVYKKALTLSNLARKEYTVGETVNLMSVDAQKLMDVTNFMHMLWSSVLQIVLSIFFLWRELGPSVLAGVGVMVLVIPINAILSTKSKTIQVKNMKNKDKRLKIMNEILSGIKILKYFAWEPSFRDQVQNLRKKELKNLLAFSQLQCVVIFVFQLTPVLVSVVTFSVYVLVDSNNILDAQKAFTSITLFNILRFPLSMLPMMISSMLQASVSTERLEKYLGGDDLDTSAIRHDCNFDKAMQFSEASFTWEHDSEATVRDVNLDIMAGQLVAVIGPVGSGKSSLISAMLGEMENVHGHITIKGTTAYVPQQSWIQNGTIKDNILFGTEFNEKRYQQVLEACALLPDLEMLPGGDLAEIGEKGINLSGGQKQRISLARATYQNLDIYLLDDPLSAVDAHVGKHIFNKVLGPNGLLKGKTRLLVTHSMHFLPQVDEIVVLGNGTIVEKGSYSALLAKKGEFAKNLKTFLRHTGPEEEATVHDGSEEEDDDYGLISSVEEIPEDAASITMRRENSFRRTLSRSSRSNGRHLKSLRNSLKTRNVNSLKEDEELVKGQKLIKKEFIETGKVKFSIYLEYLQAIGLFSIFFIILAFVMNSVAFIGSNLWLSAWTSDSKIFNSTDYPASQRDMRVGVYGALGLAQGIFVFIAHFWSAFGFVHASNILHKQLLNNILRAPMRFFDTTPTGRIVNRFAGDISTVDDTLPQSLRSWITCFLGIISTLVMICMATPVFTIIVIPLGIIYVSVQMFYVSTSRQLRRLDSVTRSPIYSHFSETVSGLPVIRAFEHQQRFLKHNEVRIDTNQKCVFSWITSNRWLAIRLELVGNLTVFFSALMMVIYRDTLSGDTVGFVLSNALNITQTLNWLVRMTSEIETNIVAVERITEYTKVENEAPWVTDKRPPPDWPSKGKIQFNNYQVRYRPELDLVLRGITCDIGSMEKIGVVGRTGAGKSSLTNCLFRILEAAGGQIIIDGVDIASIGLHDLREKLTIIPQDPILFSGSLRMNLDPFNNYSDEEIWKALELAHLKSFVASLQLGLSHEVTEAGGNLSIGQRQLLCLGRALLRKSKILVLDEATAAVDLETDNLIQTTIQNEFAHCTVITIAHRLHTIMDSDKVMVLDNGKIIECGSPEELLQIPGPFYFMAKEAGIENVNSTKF

- % of control activity at 10 μM (OATP1B3 [1]): 36%
- % of control activity at 10 μM (OATP1B1 [2]): 34%
Compound: C#CCC(O)(c1ccncc1)c1cc2ccccc2n1S(=O)(=O)c1ccccc1 (racemic) [FKK6, 1-(1-(phenylsulfonyl)-1H-indol-2-yl)-(1-pyridin-4-yl)-but-3-yn-1-ol]
- remaining activity at 10 µM (BSEP): 44%

- IC50 (MRP2): 22 µM
Compound: CN(C)C(=O)CCSC(SCCC(=O)O)c1cccc(/C=C/c2ccc3ccc(Cl)cc3n2)c1 (centres unmarked) [MK571]

- EC50 (hPXR): 7.8 µM
Compound: C#CCC(O)(c1cc[n+]([O-])cc1)c1cc2ccccc2n1S(=O)(=O)c1ccccc1 (centres unmarked) [compound 6, 4-(1-hydroxy-1-(1-(phenylsulfonyl)-1H-indol-2-yl)but-3-yn-1-yl)pyridine 1-oxide]

- EC50 (hPXR): 5.1 µM
Compound: C#CCC(O)(c1ccncc1)c1cc2ccccc2n1S(=O)(=O)c1ccc(O)cc1 (centres unmarked) [compound 9, 4-((2-(1-hydroxy-1-(pyridin-4-yl)but-3-yn-1-yl)-1H-indol-1-yl)sulfonyl)phenol]

- IC50 (OATP1B3 [3]): 3.9 µM
- IC50 (OATP1B1 [4]): 3.4 µM
Compound: CO[C@H]1/C=C/O[C@@]2(C)Oc3c(C)c(O)c4c(O)c(c(/C=N/N5CCN(C)CC5)c(O)c4c3C2=O)NC(=O)/C(C)=C\C=C\[C@H](C)[C@H](O)[C@@H](C)[C@@H](O)[C@@H](C)[C@H](OC(C)=O)[C@@H]1C [rifampicin]
